Laboratory results published in patent publication US20230183233A1, “Bicyclic Pyridin-2-one and pyrimidin-4-one Derivatives Useful As a Factor XIa Inhibitors” (Janssen Pharmaceutica NV, priority 2021, published 2023).
Read-outs that look alike come from different tables or passages of the source. 5‑FAM = 5-carboxyfluorescein (5-FAM) label at the N-terminus

How the values were obtained:
Assay type in all cases: biochemical
Factor XIa [1] = target: T1, Factor XIa (Homo sapiens, UniProt P03951); assay: Factor XIa inhibition assay utilizing a fluorophore-quencher pair peptide substrate (FLINT, kinetic read); settings: read-out: FXIa KIN Inh IC50
Text: Biological Example 1: Factor XIa Inhibition Assay Utilizing a Fluorophore-Quencher Pair Peptide Substrate A fluorescence intensity (FLINT) based assay was used to monitor inhibition of Factor XIa. The peptide substrate, 5Fam-[…]-K5Tamra (purchased from New England Peptide) was chosen based on the FXI sequence. Conversion of zymogen FXI to its activated form, FXIa, occurs by proteolytic cleavage by […] at two sites, Arg146 and Arg180. The custom peptide used in this assay was based on the Arg146 cleavage site of FXI. The peptide substrate was designed with a fluorophore-quencher pair, where the fluorescence is quenched until FXIa cleaves the 8-mer peptide after the Arg residue.
The 2× Factor XIa stock solution was prepared by diluting 6.562 μM stock in 1× assay buffer for a […].
Test compound(s) were run in an 11-point, 3-fold serial dilution with a final top compound concentration of 100 nM. Final DMSO in assay was 2%. FXIa was preincubated with compound for 30-minutes and then substrate was added to initiate the reaction. The assay was run with kinetic (KIN) reads at 5 min intervals over 30 minutes. […] More specifically, the assay was run as follows: • 100 nL of 0.01 mM test compound was dispensed into black 384-well non-binding Greiner BioOne 784900 plate for 0.1 μM final concentration; • 5 μL of 1× assay buffer was dispensed to column 24 (low control) and 5 μL 2× Factor XIa solution was dispensed to columns 1-23 (column 23 high control); • the plate was centrifuged with a “cover” plate at 500 rpm for 1 min • the plate was pre-incubated for 30 minutes at room temperature with plate covered; • 5 μL of 2× 5Fam-[…]-K5Tamra peptide substrate was dispensed into the entire plate, columns 1-24; • the plate was centrifuged with a “cover” plate at 500 rpm for 1 min; • the plate was read monitoring fluorescence intensity on the BMG PHERAStar at room temperature, using fluorescence module 485 nm/520 nm.
Percent inhibition (IC50) curves were generated per compound tested, and data was analyzed using a 4-parameter logistic fit using GeneData Screener. The relative fluorescence unit (RFU) values were normalized to percent inhibition using the following equation:
% inhibition=((HC−LC)−(compound−LC)/(HC−LC))*100 where LC—low control=mean signal of no Factor XIa or 100% inhibition of Factor XIa; HC—high control=mean signal of Factor XIa+5Fam-[…]-K5Tamra peptide substrate with DMSO only.
An 11-point dose response curve for the test compound(s) was generated using GENDATA to determine IC50 value based on the following equation:
Y=Bottom+(Top−Bottom)/(1+10^((log IC50−X)*HillSlope)) where Y is the % inhibition in the presence of X inhibitor concentration, Top=high control=mean signal of Factor XIa+5Fam-[…]-K5Tamra peptide substrate with DMSO only; Bottom=low control−mean signal of no Factor XIa or 100% inhibition of Factor XIa; HillSlope—Hill coefficient; and IC50=concentration of compound with 50% inhibition in relation to top/high control.

human plasma kallikrein = human plasma kallikrein (Homo sapiens, UniProt P03952); assay: Kallikrein inhibition assay utilizing a quenched AMC peptide substrate (FLINT, kinetic read); settings: read-out: Kallikrein KIN Inh IC50
Factor XIa [2] = target: T1, Factor XIa; assay: Factor XIa inhibition assay utilizing a fluorophore-quencher pair peptide substrate (FLINT, kinetic read); settings: peptide substrate cleaved by FXIa; fit to a substrate inhibition model

human plasma kallikrein, sequence (P03952 391-638 limits assumed): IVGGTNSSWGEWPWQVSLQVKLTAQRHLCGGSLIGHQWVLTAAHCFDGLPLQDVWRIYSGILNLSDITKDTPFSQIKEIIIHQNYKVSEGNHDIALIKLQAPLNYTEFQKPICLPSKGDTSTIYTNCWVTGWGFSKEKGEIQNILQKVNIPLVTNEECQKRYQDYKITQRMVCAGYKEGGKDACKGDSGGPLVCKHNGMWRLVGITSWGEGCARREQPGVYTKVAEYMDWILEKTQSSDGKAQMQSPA
human plasma kallikrein, sequence (P03952 20-390 partner limits assumed): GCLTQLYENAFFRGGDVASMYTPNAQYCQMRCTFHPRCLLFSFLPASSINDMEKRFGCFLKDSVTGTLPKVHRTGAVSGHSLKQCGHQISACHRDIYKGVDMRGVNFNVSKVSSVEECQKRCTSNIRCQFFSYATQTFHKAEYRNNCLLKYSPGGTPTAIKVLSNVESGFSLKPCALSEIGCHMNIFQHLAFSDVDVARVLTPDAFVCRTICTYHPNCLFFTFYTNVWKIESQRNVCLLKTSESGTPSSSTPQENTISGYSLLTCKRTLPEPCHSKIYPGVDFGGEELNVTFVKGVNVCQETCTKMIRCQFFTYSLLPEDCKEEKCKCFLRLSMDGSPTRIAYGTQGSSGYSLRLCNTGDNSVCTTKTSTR
T1 sequence (P03951 388-625 limits assumed): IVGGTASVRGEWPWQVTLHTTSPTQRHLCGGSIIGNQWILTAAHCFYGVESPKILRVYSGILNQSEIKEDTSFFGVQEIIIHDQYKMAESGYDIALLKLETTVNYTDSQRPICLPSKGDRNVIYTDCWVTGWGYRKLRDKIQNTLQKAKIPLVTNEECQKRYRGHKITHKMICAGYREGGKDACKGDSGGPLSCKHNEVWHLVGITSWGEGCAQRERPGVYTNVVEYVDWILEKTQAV
T1 sequence (P03951 19-387 partner limits assumed): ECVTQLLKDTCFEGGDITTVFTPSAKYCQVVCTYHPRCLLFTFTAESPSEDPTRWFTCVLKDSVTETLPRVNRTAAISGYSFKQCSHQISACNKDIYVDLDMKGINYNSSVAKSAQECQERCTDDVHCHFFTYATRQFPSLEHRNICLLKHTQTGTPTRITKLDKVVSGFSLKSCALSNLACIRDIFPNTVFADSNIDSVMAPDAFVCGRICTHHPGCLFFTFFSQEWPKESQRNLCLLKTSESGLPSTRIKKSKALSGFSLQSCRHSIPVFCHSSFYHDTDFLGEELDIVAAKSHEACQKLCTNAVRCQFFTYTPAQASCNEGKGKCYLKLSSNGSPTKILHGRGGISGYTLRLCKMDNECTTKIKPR

Compound | IC50 (human plasma kallikrein; values given with μM) | IC50 (Factor XIa [1]; values in nM) | IC50 (human plasma kallikrein; values in nM) | also measured
C[C@H]1C[C@@H](c2ncc(-c3ccnc(CN)c3)[nH]2)n2c1cc(-c1c(-n3cnnn3)ccc(Cl)c1F)cc2=O (relative stereo) [Example 39, (1*S,3*S)-3-(5-(2-(Aminomethyl)pyridin-4-yl)-1H-imidazol-2-yl)-7-(3-chloro-2-fluoro-6-(1H-tetrazol-1-yl)phenyl)-1-methyl-2,3-dihydroindolizin-5(1H)-one] | – | – | – | IC50 (Factor XIa [1]; values given with μM): 6.6 µM
CC1C[C@@H](c2ncc(-c3cnns3)[nH]2)n2c1nc(-c1c(-n3cnnn3)ccc(Cl)c1F)cc2=O (stereo in doubt) [Example 110, (6*S)-6-(5-(1,2,3-Thiadiazol-5-yl)-1H-imidazol-2-yl)-2-(3-chloro-2-fluoro-6-(1H-tetrazol-1-yl)phenyl)-8-methyl-7,8-dihydropyrrolo[1,2-a]pyrimidin-4(6H)-one] | 2.3 µM | 0.0921 µM | – | –
5Fam-KLTRAETV-K5Tamra ({5‑FAM}-KLTRAETVK-{5‑TAMRA}) ["The peptide substrate ... designed with a fluorophore-quencher pair", "based on the Arg146 cleavage site of FXI", purchased from New England Peptide] | – | – | – | Ki (Factor XIa [2]): 61.6 µM; Km (Factor XIa [2]): 12.4 µM; kcat (Factor XIa [2]): 0.86 s⁻¹
Nc1ccc(-c2cnc([C@H]3CC4(CC4)c4cc(-c5cc(Cl)ccc5-n5cnnn5)cc(=O)n43)[nH]2)c(F)n1 (single isomer, unassigned) [Example 3] | – | 0.0027 µM | 0.0392 µM | –
C[C@H]1C[C@@H](c2ncc(-c3ccnn3C)[nH]2)n2c1nc(-c1c(-n3cnnn3)ccc(Cl)c1F)cc2=O (relative stereo) [Example 146, (6*S,8*S)-2-(3-Chloro-2-fluoro-6-(1H-tetrazol-1-yl)phenyl)-8-methyl-6-(5-(1-methyl-1H-pyrazol-5-yl)-1H-imidazol-2-yl)-7,8-dihydropyrrolo[1,2-a]pyrimidin-4(6H)-one] | – | 0.009 µM | 0.296 µM | –
C[C@H]1C[C@H](c2ncc(-c3ccc(N)nc3Cl)[nH]2)n2c1cc(-c1c(-n3cnnn3)ccc(Cl)c1F)cc2=O (relative stereo) [Example 37, (1*S,3*R)-3-(5-(6-Amino-2-chloropyridin-3-yl)-1H-imidazol-2-yl)-7-(3-chloro-2-fluoro-6-(1H-tetrazol-1-yl)phenyl)-1-methyl-2,3-dihydroindolizin-5(1H)-one] | 7.8 µM | 0.283 µM | – | –
C[C@H]1C[C@@H](c2[nH]c(-c3ccc(N)nc3F)nc2F)n2c1cc(-c1c(-n3cnnn3)ccc(Cl)c1F)cc2=O (relative stereo) [Example 35, (1*S,3*S)-3-(2-(6-Amino-2-fluoropyridin-3-yl)-4-fluoro-1H-imidazol-5-yl)-7-(3-chloro-2-fluoro-6-(1H-tetrazol-1-yl)phenyl)-1-methyl-2,3-dihydroindolizin-5(1H)-one] | 9.8 µM | ~0.61 µM | – | –
C[C@H]1C[C@@H](c2ncc(-c3ccc(N)nc3F)[nH]2)n2c1nc(-c1c(-n3cnnn3)ccc(Cl)c1F)cc2=O (relative stereo) [Example 149, (6*S,8*S)-6-(5-(6-Amino-2-fluoropyridin-3-yl)-1H-imidazol-2-yl)-2-(3-chloro-2-fluoro-6-(1H-tetrazol-1-yl)phenyl)-8-methyl-7,8-dihydropyrrolo[1,2-a]pyrimidin-4(6H)-one] | – | 0.0003 µM | 0.0235 µM | –
